Values belong to the molecule of their own block, whether it stands above or below them.
Assays:
[1] = Partition coefficient (log P), n-octanol/PBS; format: physicochemical
Procedure: In a 15 mL centrifuge tube, 2.9 mL of PBS (0.1 mol/L, pH = 7.4) and 3 mL of n-octanol were added. [^68Ga]Ga-TATE-46, [^68Ga]Ga-DOTA-TATE, or [^68Ga]Ga-FAPI-46 (14.8 MBq, 100 µL) were added to each tube. The mixture was vortexed at room temperature for 2 min to ensure thorough blending, and then centrifuged at room temperature (effective centrifuge radius 12 cm, 3000 rpm) for 5 min. After allowing sufficient time for phase separation, three 500 µL samples were taken from each layer. The radioactivity of each sample was measured using a γ-counter (count per minute, CPM), and log p = log (n-octanol CPM/water CPM) was calculated. The experiment was repeated three times.

[2] = Pharmacokinetics, blood time-activity curves, two-compartment model; format: in vivo, BALB/c mice
Procedure: Nine female healthy BALB/c mice were randomly divided into three groups (with three mice in each group) using a random number table. Each group was administered 100 µL of [^68Ga]Ga-TATE-46, [^68Ga]Ga-DOTA-TATE, or [^68Ga]Ga-FAPI-46 (0.37 MBq) via tail vein injection. Blood samples (5 µL × 3) were collected at 2, 5, 10, 15, 30, 60, 90, and 120 min post-injection via tail vein. The radioactivity in the blood was measured with a γ-counter and converted to blood radioactivity concentration (kBq/mL). The pharmacokinetic data (time–blood radioactivity concentration) were analyzed by using the two-compartment model in the pharmacokinetic software WinNonlin (Certara, Louis, MO, USA, 2018-06) to determine the distribution and clearance half-life parameters of the radiopharmaceuticals in the mice.

[3] = Ex vivo biodistribution in NCI-H727 tumor-bearing mice; details: female, BALB/c nude, mouse, in vivo, 1.48 MBq, total radioactivity, Biodistribution
Procedure: (§1) Female BALB/c nude mice were obtained from Charles River Laboratories (Beijing, China). […] Approximately 5 × 10^6 cells were implanted into the right shoulder of each mouse to establish an NCI-H727 tumor model and Mc38 tumor model. Once the tumor volume reached 200–300 mm^3, the mice were used for imaging or biodistribution studies. All animal experiments were carried out in accordance with the National Institutes of Health Guidelines for the Care and Use of Laboratory Animals and were approved by the Animal Protection and Utilization Committee of the General Hospital of the PLA (Approval No.: S2023-209-1).
(§2) The NCI-H727 tumor-bearing mice were randomly assigned to four groups (with three mice in each group) and were injected with [^68Ga]Ga-TATE-46 (1.48 MBq, 100 µL). The mice were put to death at 0.5, 1, 2, and 4 h post-injection (p.i.). The tissues and organs of concern were gathered, weighed, and measured for radioactivity using a γ-counter. Additionally, [^68Ga]Ga-DOTA-TATE and [^68Ga]Ga-FAPI-46 were used as control groups in the biodistribution study of the NCI-H727 tumor model at 1 h p.i. After performing time decay correction, the radiotracer uptake in each tissue and organ was calculated as %ID/g.

[4] = test system: NCI-H727 tumor-bearing mice; test: as above; details: 1 h p.i., γ-counter, mean ± SD, n=3
Procedure: as §1, §2

[5] = female healthy BALB/c mice, n = 3 per group, 0.37 MBq tail vein, blood 2-120 min, γ-counter, two-compartment model (WinNonlin)

logD ([1]; pH 7.4): -3.02 ± 0.08
distribution half-life ([2]; mouse, in vivo): 1.38 min
elimination half-life ([2]; mouse, in vivo): 19.50 min
tissue uptake at 1 h ([3]; Blood): 0.42 ± 0.15 %ID/g
tissue uptake at 1 h ([3]; Brain): 0.03 ± 0.01 %ID/g
tissue uptake at 1 h ([3]; Heart): 0.23 ± 0.09 %ID/g
tissue uptake at 1 h ([3]; Intestine): 1.48 ± 0.11 %ID/g
tissue uptake at 1 h ([3]; Kidney): 9.18 ± 3.65 %ID/g
tissue uptake at 1 h ([3]; Liver): 1.35 ± 0.28 %ID/g
tissue uptake at 1 h ([3]; Lung): 5.22 ± 0.82 %ID/g
tissue uptake at 1 h ([3]; Spleen): 1.22 ± 0.11 %ID/g
tissue uptake at 1 h ([3]; Stomach): 7.98 ± 0.89 %ID/g
tissue uptake at 1 h ([3]; Tumor (tumor uptake)): 1.57 ± 0.17 %ID/g
Structure (SMILES): C[C@@H](O)[C@H](NC(=O)[C@@H]1CSSC[C@H](NC(=O)[C@@H](Cc2ccccc2)NC(=O)CN2CCN(CC(=O)O)CCN(CC(=O)O)CCN(CC(=O)O)CC2)C(=O)N[C@@H](Cc2ccc(O)cc2)C(=O)N[C@H](Cc2c[nH]c3ccccc23)C(=O)N[C@@H](CCCCN)C(=O)N[C@@H]([C@@H](C)O)C(=O)N1)C(=O)O [[^68Ga]Ga-DOTA-TATE, metal not drawn, reference compound]

Structure (SMILES): CN(CCCN1CCN(C(=O)CN2CCN(CC(=O)[O-])CCN(CC(=O)[O-])CCN(CC(=O)[O-])CC2)CC1)c1ccc2nccc(C(=O)NCC(=O)N3CC(F)(F)C[C@H]3C#N)c2c1.[68Ga+3] [[^68Ga]Ga-FAPI-46, reference compound]
Log p ([1]; shake-flask n-octanol/PBS (0.1 mol/L, pH 7.4), 14.8 MBq in 100 µL, vortexed 2 min at room temperature, centrifuged 3000 rpm 5 min, γ-counter CPM, mean ± SD, repeated three times): −3.05 ± 0.04
distribution half-life [2, 5]: 0.64 min
elimination half-life [2, 5]: 21.77 min
Biodistribution, Tumor (tumor uptake) ([4]; NCI-H727 tumor): 1.07 ± 0.01 %ID/g
Biodistribution, Blood ([4]; NCI-H727 tumor-bearing mice): 1.05± 0.05 %ID/g
Biodistribution, Bone ([4]; NCI-H727 tumor-bearing mice): 0.51± 0.05 %ID/g
Biodistribution, Brain ([4]; NCI-H727 tumor-bearing mice): 0.05± 0.01 %ID/g
Biodistribution, Heart ([4]; NCI-H727 tumor-bearing mice): 0.39± 0.16 %ID/g
Biodistribution, Intestine ([4]; NCI-H727 tumor-bearing mice): 0.38± 0.01 %ID/g
Biodistribution, Kidney ([4]; NCI-H727 tumor-bearing mice): 2.25± 0.12 %ID/g
Biodistribution, Liver ([4]; NCI-H727 tumor-bearing mice): 2.56± 0.95 %ID/g
Biodistribution, Lung ([4]; NCI-H727 tumor-bearing mice): 3.17± 0.79 %ID/g
Biodistribution, Muscle ([4]; NCI-H727 tumor-bearing mice): 0.18± 0.02 %ID/g
Biodistribution, Spleen ([4]; NCI-H727 tumor-bearing mice): 3.75± 0.75 %ID/g
Biodistribution, Stomach ([4]; NCI-H727 tumor-bearing mice): 0.38± 0.01 %ID/g
